Source: ChEMBL document CHEMBL1130497, “Novel 7-hydroxycoumarin based fluorescent labels” (Bioorg Med Chem Lett, 1997)

Experiment: pKa value was determined
Assay type: physicochemical

pKa	SMILES
6.6	CCN(CC)Cc1c(O)ccc2c(CCCCC(=O)O)cc(=O)oc12
6.7	O=C(O)CCCCc1cc(=O)oc2c(CN3CCCC3)c(O)ccc12
6.6	O=C(O)CCCCc1cc(=O)oc2c(CN3CCCCC3)c(O)ccc12
7.8	O=C(O)CCCCc1cc(=O)oc2cc(O)ccc12
